Data taken from the supplement of paper PMC10307832.

Legend:
Experiment in all cases: relative viability (nuclei count vs DMSO), 5 days (fraction); higher = more cells survive
A-427 = test system: A-427
In short: (§1)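 Relative viability is defined as nuclei in treated wells over nuclei in vehicle wells. Duplicate plates were run and medians reported. Lung cancer cell lines in 1536-well plates were dosed by pin tool one day after seeding, with one drug or with a fixed anchor-drug dose plus five library-drug doses (not always all listed) in √10 steps, and nuclei were counted after 5 days.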

A549 = test system: A549
In short: as §1

ABC-1 = test system: ABC-1
In short: as §1

COR-L23 = test system: COR-L23
In short: as §1

EKVX = test system: EKVX
In short: as §1

LC-2-ad = test system: LC-2-ad
In short: as §1

LCLC-97TM1 = test system: LCLC-97TM1
In short: as §1

LK-2 = test system: LK-2
In short: as §1

LXF-289 = test system: LXF-289
In short: as §1

NCI-H1437 = test system: NCI-H1437
In short: as §1

NCI-H1666 = test system: NCI-H1666
In short: as §1

NCI-H1703 = test system: NCI-H1703
In short: as §1

NCI-H1792 = test system: NCI-H1792
In short: as §1

NCI-H1915 = test system: NCI-H1915
In short: as §1

NCI-H2085 = test system: NCI-H2085
In short: as §1

NCI-H2087 = test system: NCI-H2087
In short: as §1

NCI-H2126 = test system: NCI-H2126
In short: as §1

NCI-H3122 = test system: NCI-H3122
In short: as §1

NCI-H322M = test system: NCI-H322M
In short: as §1

NCI-H460 = test system: NCI-H460
In short: as §1

NCI-H647 = test system: NCI-H647
In short: as §1

NCI-H661 = test system: NCI-H661
In short: as §1

NCI-H727 = test system: NCI-H727
In short: as §1

PC-14 = test system: PC-14
In short: as §1

## Nc1cccc2c1CN(C1CCC(=O)NC1=O)C2=O (stereo not given) [Lenalidomide] + O=C(c1cc(Cc2n[nH]c(=O)c3ccccc23)ccc1F)N1CCN(C(=O)C2CC2)CC1 [Olaparib] (partner 8 µM)
A-427; first compound 0.253 µM
  relative viability: 0.713
A-427; first compound 0.8 µM
  relative viability: 0.504
A-427; first compound 2.53 µM
  relative viability: 0.838
A-427; first compound 8 µM
  relative viability: 0.79
A549; first compound 0.253 µM
  relative viability: 0.401
A549; first compound 0.8 µM
  relative viability: 0.101
A549; first compound 2.53 µM
  relative viability: 0.22
A549; first compound 8 µM
  relative viability: 0.228
ABC-1; first compound 0.253 µM
  relative viability: 0.654
ABC-1; first compound 0.8 µM
  relative viability: 0.764
ABC-1; first compound 2.53 µM
  relative viability: 0.861
ABC-1; first compound 8 µM
  relative viability: 1.03
COR-L23; first compound 0.253 µM
  relative viability: 0.329
COR-L23; first compound 0.8 µM
  relative viability: 0.316
COR-L23; first compound 2.53 µM
  relative viability: 0.356
COR-L23; first compound 8 µM
  relative viability: 0.393
EKVX; first compound 0.253 µM
  relative viability: 0.776
EKVX; first compound 0.8 µM
  relative viability: 0.754
EKVX; first compound 2.53 µM
  relative viability: 0.87
EKVX; first compound 8 µM
  relative viability: 0.786
LC-2-ad; first compound 0.253 µM
  relative viability: 0.359
LC-2-ad; first compound 0.8 µM
  relative viability: 0.716
LC-2-ad; first compound 2.53 µM
  relative viability: 0.777
LC-2-ad; first compound 8 µM
  relative viability: 0.782
LCLC-97TM1; first compound 0.253 µM
  relative viability: 0.403
LCLC-97TM1; first compound 0.8 µM
  relative viability: 0.38
LCLC-97TM1; first compound 2.53 µM
  relative viability: 0.433
LCLC-97TM1; first compound 8 µM
  relative viability: 0.36
LK-2; first compound 0.253 µM
  relative viability: 0.881
LK-2; first compound 0.8 µM
  relative viability: 0.413
LK-2; first compound 2.53 µM
  relative viability: 0.571
LK-2; first compound 8 µM
  relative viability: 0.387
LXF-289; first compound 0.253 µM
  relative viability: 1.04
LXF-289; first compound 0.8 µM
  relative viability: 1.17
LXF-289; first compound 2.53 µM
  relative viability: 1.24
LXF-289; first compound 8 µM
  relative viability: 1.16
NCI-H1437; first compound 0.253 µM
  relative viability: 0.612
NCI-H1437; first compound 0.8 µM
  relative viability: 0.629
NCI-H1437; first compound 2.53 µM
  relative viability: 0.638
NCI-H1437; first compound 8 µM
  relative viability: 0.677
NCI-H1666; first compound 0.253 µM
  relative viability: 0.781
NCI-H1666; first compound 0.8 µM
  relative viability: 0.717
NCI-H1666; first compound 2.53 µM
  relative viability: 0.776
NCI-H1666; first compound 8 µM
  relative viability: 0.759
NCI-H1703; first compound 0.253 µM
  relative viability: 0.398
NCI-H1703; first compound 0.8 µM
  relative viability: 0.521
NCI-H1703; first compound 2.53 µM
  relative viability: 0.478
NCI-H1703; first compound 8 µM
  relative viability: 0.433
NCI-H1792; first compound 0.253 µM
  relative viability: 0.609
NCI-H1792; first compound 0.8 µM
  relative viability: 0.378
NCI-H1792; first compound 2.53 µM
  relative viability: 0.588
NCI-H1792; first compound 8 µM
  relative viability: 0.485
NCI-H1915; first compound 0.253 µM
  relative viability: 0.265
NCI-H1915; first compound 0.8 µM
  relative viability: 0.263
NCI-H1915; first compound 2.53 µM
  relative viability: 0.284
NCI-H1915; first compound 8 µM
  relative viability: 0.272
NCI-H2085; first compound 0.253 µM
  relative viability: 0.793
NCI-H2085; first compound 0.8 µM
  relative viability: 0.796
NCI-H2085; first compound 2.53 µM
  relative viability: 0.841
NCI-H2085; first compound 8 µM
  relative viability: 0.752
NCI-H2087; first compound 0.253 µM
  relative viability: 0.562
NCI-H2087; first compound 2.53 µM
  relative viability: 0.689
NCI-H2087; first compound 8 µM
  relative viability: 0.685
NCI-H2126; first compound 0.253 µM
  relative viability: 0.934
NCI-H2126; first compound 0.8 µM
  relative viability: 0.857
NCI-H2126; first compound 2.53 µM
  relative viability: 0.983
NCI-H2126; first compound 8 µM
  relative viability: 0.854
NCI-H3122; first compound 0.253 µM
  relative viability: 0.596
NCI-H3122; first compound 0.8 µM
  relative viability: 0.579
NCI-H3122; first compound 2.53 µM
  relative viability: 0.623
NCI-H3122; first compound 8 µM
  relative viability: 0.745
NCI-H322M; first compound 0.253 µM
  relative viability: 0.831
NCI-H322M; first compound 0.8 µM
  relative viability: 0.736
NCI-H322M; first compound 2.53 µM
  relative viability: 0.886
NCI-H322M; first compound 8 µM
  relative viability: 0.945
NCI-H460; first compound 0.253 µM
  relative viability: 0.394
NCI-H460; first compound 0.8 µM
  relative viability: 0.397
NCI-H460; first compound 2.53 µM
  relative viability: 0.438
NCI-H460; first compound 8 µM
  relative viability: 0.374
NCI-H647; first compound 0.253 µM
  relative viability: 0.525
NCI-H647; first compound 0.8 µM
  relative viability: 0.543
NCI-H647; first compound 2.53 µM
  relative viability: 0.65
NCI-H647; first compound 8 µM
  relative viability: 0.566
NCI-H661; first compound 0.253 µM
  relative viability: 0.725
NCI-H661; first compound 0.8 µM
  relative viability: 0.756
NCI-H661; first compound 2.53 µM
  relative viability: 0.735
NCI-H661; first compound 8 µM
  relative viability: 0.704
NCI-H727; first compound 0.253 µM
  relative viability: 0.732
NCI-H727; first compound 0.8 µM
  relative viability: 0.706
NCI-H727; first compound 2.53 µM
  relative viability: 0.633
NCI-H727; first compound 8 µM
  relative viability: 0.7
PC-14; first compound 0.253 µM
  relative viability: 0.302
PC-14; first compound 0.8 µM
  relative viability: 0.243
PC-14; first compound 2.53 µM
  relative viability: 0.374
PC-14; first compound 8 µM
  relative viability: 0.436
